The values below come from PMC7038073, “Substituted Piperazines as Novel Potential Radioprotective Agents” (Molecules, 2020).

Series [1] is described as follows: WST-1 cytotoxicity test, PANC-1. Format: cell-based. The note with it: human, PANC-1 cells, 48 h, WST-1, mean ± SD of three experiments, read-out: relative viability (%) compared to untreated control; for viability at 48 h, 10 µM: PANC-1, 10 µM; for viability at 48 h, 100 µM: PANC-1, 100 µM. As for the experimental part: (§1) In this study, the cytotoxic effects of nine new compounds (2, 3, 4, 5, 6, 7, 8, 9, 10) were tested on 10 human cell lines (nine cancer and one non-cancer cell line). The cell lines were treated with each compound at concentrations of 10 µM and 100 µM for 48 h. The proliferation capacity of the treated cells was determined by WST-1 test and compared against the proliferation rate of the untreated control cells (100%).
(§2) The cell lines Jurkat, MOLT-4, A2780, A549, HT-29, PANC-1, HeLa, MCF-7, SAOS-2, and MRC-5 (all purchased from Sigma Aldrich, Czech Republic) were included in this study. All cell lines were maintained according to the provider’s guidelines, and plated and treated in 96-well plates (500 to 30 × 10^3 cells per well). The tested compounds 2, 3, 4, 5, 6, 7, 8, 9, and 10 were dissolved in 0.1% DMSO and kept in 10 mM stock solutions. Before use, the stock solution was diluted in culture media at ratios of 1:100 and 1:1000. The studied cell lines were treated with the compounds 2, 3, 4, 5, 6, 7, 8, 9, and 10 at concentrations of 10 and 100 µM for 48 h. Control cells were tested in culture media with and without DMSO (0.1%). The cells were also treated with 1 µM doxorubicin as a cytotoxicity control.
(§3) The WST-1 (2-(4-iodophenyl)-3-(4-nitrophenyl)-5-(2,4-disulfophenyl)-2H-tetrazolium, monosodium salt) test (Roche, Mannheim, Germany) was used according to the manufacturer’s protocol to determine cell viability in all 10 cell lines 48 h after treatment with the tested compounds. The cells were analyzed in a Tecan Infinite M200 spectrometer (Tecan Group, Männedorf, Switzerland) at 440 nm.

Series [2] can be described thus: WST-1 cytotoxicity test, MOLT-4. The following applies: human, MOLT-4 cells, 48 h, WST-1, mean ± SD of three experiments, read-out: relative viability (%) compared to untreated control; for viability at 48 h, 10 µM: MOLT-4, 10 µM; for viability at 48 h, 100 µM: MOLT-4, 100 µM. Format: cell-based. As for the experimental part: as §1, §2, §3
(Formazan colour is commonly taken as a measure of viable cells.)

A short description of series [3]: WST-1 cytotoxicity test, HeLa. The note with it: human, HeLa cells, 48 h, WST-1, mean ± SD of three experiments, read-out: relative viability (%) compared to untreated control. Format: cell-based. As for the experimental part:
as §1, §2, §3

Another series deals with MOLT-4 cells. Description: Radioprotection in vitro, Annexin V/PI flow cytometry after irradiation. Type of series: cell-based, human. The following applies: 60-min pre-treatment, 1 Gy; for viability at 100 µM: Homo sapiens, MOLT-4, light or radiation study, 24 h following irradiation, irradiated untreated 40%, non-irradiated control 92%, read-out: percentage of viable MOLT-4 cells (Annexin V and PI negative) after irradiation. An excerpt:
Phosphatidylserine, a major component of the inner leaflet of the cytoplasmic membrane bilayers, is frequently used as an indicator of cell death. The externalization of this phospholipid can be detected through Annexin V, which binds to phosphatidylserine in the presence of calcium. Cell viability was quantified by Annexin V-Alexa Fluor® 488/propidium iodide (PI) staining and flow cytometry analysis to determine whether the tested compounds could prevent radiation-induced cell death in MOLT-4 cells. The percentage of viable cells was 92% for non-irradiated control (0.1% DMSO vehicle) and 40% for untreated irradiated cells (1 Gy) (Figure 2A).
Fresh 50 mM stock solutions of the compounds were prepared in DMSO (Sigma-Aldrich, St. Louis, MO, USA) before use in the study. For the radioprotection experiments, MOLT-4 cells were treated with 100 μM solutions of the novel compounds and irradiated after 60 min with a ^60Co γ-ray source (Chisotron Chirana, Prague, Czech Republic). The non-irradiated and irradiated control cells were treated with DMSO vehicle only (0.1%) and handled in parallel with the experimental cells. Non-irradiated control cells were handled in the same manner. Cell viability was determined by flow cytometry using an Alexa Fluor® 488 Annexin V/Dead Cell Apoptosis kit (Life Technologies, Grand Island, NY, USA) according to the manufacturer’s instructions. The Alexa Fluor® 488 Annexin V/Dead Cell Apoptosis kit employs the property of Alexa Fluor® 488 conjugated to Annexin V to bind to phosphatidylserine in the presence of Ca^2+, and the property of propidium iodide (PI) to enter cells with damaged cell membranes and bind to DNA. Measurement was performed using a CyAn (Beckman Coulter, Miami, FL, USA) flow cytometer. Listmode data was analyzed with the Kaluza Analysis v1.3 software (Beckman Coulter, Miami, FL, USA).

Series [4] can be described thus: WST-1 cytotoxicity test, MRC-5. The following applies: human, MRC-5 cells, 48 h, WST-1, mean ± SD of three experiments, read-out: relative viability (%) compared to untreated control; for viability at 48 h, 10 µM: MRC-5, 10 µM; for viability at 48 h, 100 µM: MRC-5, 100 µM. Format: cell-based. On the procedure:
as §1, §2, §3

The subject of the next series is BALB/c mice. Description: Survival of whole-body irradiated mice. The note with it: female BALB/c mice; for day post-irradiation of onset of lethal effect / decline in survival: i.p. at 50% of MTD 5 min before 7.15 Gy, non-treated control 10 days; for survival at day 30 post-irradiation: n = 10, i.p. at 50% of MTD 5 min before 7.15 Gy, control 40%. Format: in vivo. On the procedure:
To estimate the radioprotective effect on whole-body irradiated mice, compounds 4 (50 mg/kg), 5 (100 mg/kg), 6 (50 mg/kg), 7 (100 mg/kg), 8 (1000 mg/kg), and 10 (325 mg/kg) were injected (intraperitoneally, i.p.) 5 min before receiving 7.15 Gy of gamma radiation. These compounds were selected based on the cytotoxicity screening in vitro, and applied at a dose corresponding to 50% of the MTD in vivo. […] The follow-up period was 30 days.
Adult female BALB/c mice (21 ± 0.8 g) were used for all experiments (Velaz a.s., Prague, Czech Rep.). All the performed methods were in accordance with NIRS Guidelines for the Care and Use of Laboratory Animals and approved by the Committee for animal rights of the Ministry of Defence of the Czech Republic no. ČJ MO 255172/2019-684800. The mice, arranged in groups of 10 animals each, received a dose of 7.15 Gy from a ^60Co gamma source (Chisotron, Chirana, Czech Republic) at a dose rate of 1.04 Gy/min. Non-irradiated and non-treated control groups were included. Their survival and health status were checked on a daily basis for 30 days.
Compounds 4 (50 mg/kg), 5 (100 mg/kg), 6 (50 mg/kg), 7 (100 mg/kg), 8 (1000 mg/kg), and 10 (325 mg/kg) were selected and administered i.p. 5 min before irradiation. The doses were prepared from 100 mg/mL stock before each experiment.

The test system of series [5] is 10 human cell lines (nine cancer and one non-cancer cell line). Description: WST-1 cytotoxicity test, statements over all cell lines. Format: cell-based. The following applies: 100 µM, 48 h, studied cell lines. As for the experimental part:
as §1, §2, §3

Series [6] in a line: WST-1 cytotoxicity test, MCF-7. Type of series: cell-based. The following applies: human, MCF-7 cells, 48 h, WST-1, mean ± SD of three experiments, read-out: relative viability (%) compared to untreated control; for viability at 48 h, 10 µM: MCF-7, 10 µM; for viability at 48 h, 100 µM: MCF-7, 100 µM. On the procedure:
as §1, §2, §3

For the compound `Cl.Cl.Cl.OCCN1CCN(CCCNc2cccc3ccccc23)CC1` [Compound 6, 2-(4-(3-(naphthalen-1-ylamino)propyl)piperazin-1-yl)ethanol trihydrochloride], the viability at 48 h, 10 µM in series [1] was determined as 92 ± 11%; in series [2], 90 ± 7%; in series [3], 108 ± 6%; in series [4] it was 91 ± 4%; in series [6] it was 102 ± 8%. The viability at 48 h, 100 µM in series [1] worked out at 111 ± 5%; in series [2], 112 ± 4%; in series [3] it was 104 ± 7%; in series [4], 94 ± 2%; in series [6], 94 ± 9%. The viability at 100 µM in the series on MOLT-4 cells stood at 69%. The “day post-irradiation of onset of lethal effect / decline in survival” value in the series on BALB/c mice is 10 days. Besides, the “survival at day 30 post-irradiation” value in the series on BALB/c mice is 20%. Further, the “cytotoxic effect (in words)” value in series [5] is listed as “no significant cytotoxic effects”.
Consider `Cl.Cl.Cl.OCCN1CCN(CCCNc2ccccc2)CC1` [Compound 5, 2-(4-(3-(phenylamino)propyl)piperazin-1-yl)ethanol trihydrochloride], for which the viability at 48 h, 10 µM in series [1] was determined as 86 ± 16%; in series [2] it was 93 ± 9%; in series [3], 100 ± 4%; in series [4], 98 ± 7%; in series [6], 101 ± 6%. Also, the viability at 48 h, 100 µM in series [1] amounted to 115 ± 7%; in series [2], 104 ± 7%; in series [3], 116 ± 10%; in series [4], 102 ± 8%; in series [6], 106 ± 1%. In addition, the “radioprotective effect in vitro (in words)” value in the series with MOLT-4 cells (100 μM, MOLT-4) is “did not show statistically significant radioprotective effect”. Moreover, in the series on MOLT-4 cells, the viability at 100 µM was 59%. Besides, the “day post-irradiation of onset of lethal effect / decline in survival” value in the series with BALB/c mice worked out at 10 days. Moreover, the “survival at day 30 post-irradiation” value in the series with BALB/c mice was found to be 30%. Moreover, in series [5], the “cytotoxic effect (in words)” value is “no significant cytotoxic effects”.
